# Several values for one entry are separate records, joined by “and”; a condition that tells them apart may be missing. Equal values may be shown once.
# Experiments:
# [1] = system: Healthy subjects, ages 13-18; assay: Exercise and Life Style Questionnaire; type: in vivo, human; design: scale not given here; details: for Alcohol Q10 V1 Mean / Alcohol Q11 V1 Mean / Alcohol Q12 V1 Mean / Alcohol Total V1 Mean / Appetite Q5 V1 Mean / Appetite Q6 V1 Mean / Appetite Total V1 Mean / Exercise Q1 V1 Mean / Exercise Q2 V1 Mean / Exercise Q3 V1 Mean / Exercise Q4 V1 Mean / Exercise Total V1 Mean / Smoke Q7 V1 Mean / Smoke Q8 V1 Mean / Smoke Q9 V1 Mean / Smoke Total V1 Mean: Visit 1; for Alcohol Q10 V3 Mean / Alcohol Q11 V3 Mean / Alcohol Q12 V3 Mean / Alcohol Total V3 Mean / Appetite Q5 V3 Mean / Appetite Q6 V3 Mean / Appetite Total V3 Mean / Exercise Q1 V3 Mean / Exercise Q2 V3 Mean / Exercise Q3 V3 Mean / Exercise Q4 V3 Mean / Exercise Total V3 Mean / Smoke Q7 V3 Mean / Smoke Q8 V3 Mean / Smoke Q9 V3 Mean / Smoke Total V3 Mean: Visit 3
# From the text: Study participants were screened by telephone prior to study enrollment. Healthy subjects, ages 13-18, with no significant medical conditions and no history of co-morbid psychiatric disorder, current Axis I or II diagnosis, or previous participation in a pharmacotherapeutic trial, were selected. Use of any psychotropic medication or any previous head injury resulting in loss of consciousness for 5 or more minutes were used as exclusion criteria. While no participant met criteria for a neuropsychiatric disorder at enrollment, clinical assessments were still completed throughout the study to evaluate changes in mood state. In addition, self-reports of sleep habits, lifestyle, and exercise routines were also administered at baseline as well as at each study visit to assess changes in health habits during study participation. Following the completion of Visit 1 assessment, participants were given their 28-day supply of citicoline (250 mg or 500 mg) or placebo, which was randomly assigned. They were instructed to take one capsule a day every day for the next 28 days. Visit 2 occurred fourteen days after Visit 1. At Visit 2, the remaining study pills were counted and participant dosage calendars were checked to ensure compliance with the protocol. Additional neuropsychological measures and clinical assessments were administered during this visit. Participants returned for Visit 3 fourteen days later, on the 28th day of their study participation. The pill bottle and the dosage calendar were collected from each participant. Urine and blood were again obtained. Participants also participated in similar clinical and neuropsychological testing and clinical measures that were given during visit 1. The General Questionnaire and Exercise and Life Style Questionnaire are self-report questionnaires designed to assess a variety of symptoms, behaviors, and self-perceptions, including mood, complexion, exercise, food, and alcohol habits of each of the participants. The General Questionnaire was administered during each of the three study visits; the Exercise and Life Style Questionnaire was administered during each of the three study visits. The Exercise/Lifestyle Questionnaire included four summary categories (Exercise, Appetite, Smoke, and Alcohol), each of which consisted of multiple individual items. Within and between group analyses are reported below for each of the summary categories.
# [2] = system: Healthy subjects, ages 13-18; assay: Monitoring of Side Effects Scale (MOSES); type: in vivo, human; details: for V2 MOSES (Mean): Visit 2; for V3 MOSES (Mean): Visit 3; for MOSES V3-V2 Score (Mean): visit difference score V3-V2; for MOSES difference scores, between groups: visit 1 to visit 3 (so in the source); for MOSES, within-group change: visit 2 to 3
# From the text: Study participants were screened by telephone prior to study enrollment. Healthy subjects, ages 13-18, with no significant medical conditions and no history of co-morbid psychiatric disorder, current Axis I or II diagnosis, or previous participation in a pharmacotherapeutic trial, were selected. Use of any psychotropic medication or any previous head injury resulting in loss of consciousness for 5 or more minutes were used as exclusion criteria. While no participant met criteria for a neuropsychiatric disorder at enrollment, clinical assessments were still completed throughout the study to evaluate changes in mood state. In addition, self-reports of sleep habits, lifestyle, and exercise routines were also administered at baseline as well as at each study visit to assess changes in health habits during study participation. Following the completion of Visit 1 assessment, participants were given their 28-day supply of citicoline (250 mg or 500 mg) or placebo, which was randomly assigned. They were instructed to take one capsule a day every day for the next 28 days. Visit 2 occurred fourteen days after Visit 1. At Visit 2, the remaining study pills were counted and participant dosage calendars were checked to ensure compliance with the protocol. Additional neuropsychological measures and clinical assessments were administered during this visit. Participants returned for Visit 3 fourteen days later, on the 28th day of their study participation. The pill bottle and the dosage calendar were collected from each participant. Urine and blood were again obtained. Participants also participated in similar clinical and neuropsychological testing and clinical measures that were given during visit 1. The MOSES is a scale designed to assess common symptoms or adverse events associated with psychopharmacological medications. This scale is divided into nine body areas representing a typical physical examination. The interviewer asks subjects whether they have each symptom on the measure and, if so, asks them to report the level of severity of the symptom on a scale from 0 (not present) to 4 (severe). […]
smiles,measurement,setting,value
"C[N+](C)(C)CCOP(=O)(O)OP(=O)([O-])OC[C@H]1O[C@@H](n2ccc(N)nc2=O)[C@H](O)[C@@H]1O [citicoline, Cytidine 5′-diphosphocholine]",Alcohol Total V3-V1 Mean,[1]; 250 mg/day,0.00
same,Appetite Total V3-V1 Mean,[1]; 250 mg/day,-0.59
same,Exercise Total V3-V1 Mean,[1]; 250 mg/day,-0.78
same,Smoke Total V3-V1 Mean,[1]; 250 mg/day,-0.07
same,Alcohol Q10 V1 Mean,[1]; 250 mg/day,0.07
same,Alcohol Q11 V1 Mean,[1]; 250 mg/day,1.00
same,Alcohol Q12 V1 Mean,[1]; 250 mg/day,1.00
same,Alcohol Total V1 Mean,[1]; 250 mg/day,2.07
same,Appetite Q5 V1 Mean,[1]; 250 mg/day,4.11
same,Appetite Q6 V1 Mean,[1]; 250 mg/day,4.44
same,Appetite Total V1 Mean,[1]; 250 mg/day,8.56
same,Exercise Q1 V1 Mean,[1]; 250 mg/day,1.15
same,Exercise Q2 V1 Mean,[1]; 250 mg/day,6.35
same,Exercise Q3 V1 Mean,[1]; 250 mg/day,3.56
same,Exercise Q4 V1 Mean,[1]; 250 mg/day,3.81
same,Exercise Total V1 Mean,[1]; 250 mg/day,14.87
same,Smoke Q7 V1 Mean,[1]; 250 mg/day,0.00
same,Smoke Q8 V1 Mean,[1]; 250 mg/day,1.00
same,Smoke Q9 V1 Mean,[1]; 250 mg/day,1.07
same,Smoke Total V1 Mean,[1]; 250 mg/day,2.08
same,Alcohol Q10 V3 Mean,[1]; 250 mg/day,0.07
same,Alcohol Q11 V3 Mean,[1]; 250 mg/day,1.00
same,Alcohol Q12 V3 Mean,[1]; 250 mg/day,1.00
same,Alcohol Total V3 Mean,[1]; 250 mg/day,2.07
same,Appetite Q5 V3 Mean,[1]; 250 mg/day,4.15
same,Appetite Q6 V3 Mean,[1]; 250 mg/day,3.81
same,Appetite Total V3 Mean,[1]; 250 mg/day,7.96
same,Exercise Q1 V3 Mean,[1]; 250 mg/day,1.07
same,Exercise Q2 V3 Mean,[1]; 250 mg/day,6.80
same,Exercise Q3 V3 Mean,[1]; 250 mg/day,3.11
same,Exercise Q4 V3 Mean,[1]; 250 mg/day,3.11
same,Exercise Total V3 Mean,[1]; 250 mg/day,14.09
same,Smoke Q7 V3 Mean,[1]; 250 mg/day,0.00
same,Smoke Q8 V3 Mean,[1]; 250 mg/day,1.00
same,Smoke Q9 V3 Mean,[1]; 250 mg/day,1.00
same,Smoke Total V3 Mean,[1]; 250 mg/day,2.00
same,Alcohol Total V3-V1 Mean,[1]; 500 mg/day,0.00
same,Appetite Total V3-V1 Mean,[1]; 500 mg/day,-0.83
same,Exercise Total V3-V1 Mean,[1]; 500 mg/day,-2.78
same,Smoke Total V3-V1 Mean,[1]; 500 mg/day,0.00
same,Alcohol Q10 V1 Mean,[1]; 500 mg/day,0.00
same,Alcohol Q11 V1 Mean,[1]; 500 mg/day,1.00
same,Alcohol Q12 V1 Mean,[1]; 500 mg/day,1.00
same,Alcohol Total V1 Mean,[1]; 500 mg/day,2.00
same,Appetite Q5 V1 Mean,[1]; 500 mg/day,3.96
same,Appetite Q6 V1 Mean,[1]; 500 mg/day,3.25
same,Appetite Total V1 Mean,[1]; 500 mg/day,7.21
same,Exercise Q1 V1 Mean,[1]; 500 mg/day,1.17
same,Exercise Q2 V1 Mean,[1]; 500 mg/day,8.50
same,Exercise Q3 V1 Mean,[1]; 500 mg/day,3.71
same,Exercise Q4 V1 Mean,[1]; 500 mg/day,3.75
same,Exercise Total V1 Mean,[1]; 500 mg/day,17.24
same,Smoke Q7 V1 Mean,[1]; 500 mg/day,0.00
same,Smoke Q8 V1 Mean,[1]; 500 mg/day,1.00
same,Smoke Q9 V1 Mean,[1]; 500 mg/day,1.00
same,Smoke Total V1 Mean,[1]; 500 mg/day,2.00
same,Alcohol Q10 V3 Mean,[1]; 500 mg/day,0.00
same,Alcohol Q11 V3 Mean,[1]; 500 mg/day,1.00
same,Alcohol Q12 V3 Mean,[1]; 500 mg/day,1.00
same,Alcohol Total V3 Mean,[1]; 500 mg/day,2.00
same,Appetite Q5 V3 Mean,[1]; 500 mg/day,3.50
same,Appetite Q6 V3 Mean,[1]; 500 mg/day,2.88
same,Appetite Total V3 Mean,[1]; 500 mg/day,6.38
same,Exercise Q1 V3 Mean,[1]; 500 mg/day,1.13
same,Exercise Q2 V3 Mean,[1]; 500 mg/day,7.54
same,Exercise Q3 V3 Mean,[1]; 500 mg/day,2.96
same,Exercise Q4 V3 Mean,[1]; 500 mg/day,2.75
same,Exercise Total V3 Mean,[1]; 500 mg/day,14.46 and 14.48
same,Smoke Q7 V3 Mean,[1]; 500 mg/day,0.00
same,Smoke Q8 V3 Mean,[1]; 500 mg/day,1.00
same,Smoke Q9 V3 Mean,[1]; 500 mg/day,1.00
same,Smoke Total V3 Mean,[1]; 500 mg/day,2.00
same,V2 MOSES (Mean),[2]; 250 mg/day group,1.30
same,V3 MOSES (Mean),[2]; 250 mg/day group,1.04
same,MOSES V3-V2 Score (Mean),[2]; 250 mg/day group,-0.26
same,"MOSES difference scores, between groups","[2]; 250 mg/day vs 500 mg/day, p=0.64",no significant differences
same,"MOSES, between groups","[2]; 250 mg/day vs 500 mg/day, visit 3, p=0.11",no significant difference
same,"MOSES difference scores, between groups","[2]; 250 mg/day vs Placebo, p=0.70",no significant differences
same,"MOSES, between groups","[2]; 250 mg/day vs Placebo, visit 3, p=0.21",no significant difference
same,"MOSES, within-group change","[2]; 250 mg/day, p=0.34",no significant differences
same,V2 MOSES (Mean),[2]; 500 mg/day group,0.81
same,V3 MOSES (Mean),[2]; 500 mg/day group,0.38
same,MOSES V3-V2 Score (Mean),[2]; 500 mg/day group,-0.43
same,"MOSES, within-group change","[2]; 500 mg/day, p=0.07",trend toward significant differences
same,"MOSES difference scores, between groups","[2]; Placebo vs 500 mg/day, p=0.30",no significant differences
same,"MOSES, between groups","[2]; Placebo vs 500 mg/day, visit 3, p=0.85",No significant difference
same,"MOSES difference scores, three groups",[2]; p=0.66,no significant differences
same,"MOSES, overall analysis","[2]; three groups, visit 3, p=0.23",no significant differences
